Measured values taken from ChEMBL document CHEMBL1153043, “Synthesis and evaluation of 1-(benzo[b]thiophen-2-yl)ethanone analogues as novel anti-osteoporosis agents acting on BMP-2 promotor” (Bioorg Med Chem Lett, 2009).

Key:
[1] = Enhancement of BMP-2 expression in mouse MC3T3-E1 cells assessed as upregulation rate at 4 uM; assay type: functional, cell-based
Rattus norvegicus [2] = test: Antiosteoporotic activity in ovariectomized Sprague-Dawley rat assessed as average osteoid width at 40 mg/kg/day, po for 90 days by bone histomorphometry; assay type: functional
Rattus norvegicus [3] = test: Antiosteoporotic activity in ovariectomized Sprague-Dawley rat assessed as osteo cortex mineralization rate at 10 mg/kg/day, po for 90 days by bone histomorphometry; assay type: functional
Rattus norvegicus [4] = test: Antiosteoporotic activity in ovariectomized Sprague-Dawley rat assessed as osteo cortex mineralization rate at 40 mg/kg/day, po for 90 days by bone histomorphometry; assay type: functional
Rattus norvegicus [5] = test: Antiosteoporotic activity in ovariectomized Sprague-Dawley rat assessed as average osteoid width at 10 mg/kg/day, po for 90 days by bone histomorphometry; assay type: functional
Rattus norvegicus [6] = test: Antiosteoporotic activity in ovariectomized Sprague-Dawley rat assessed as trabecular bone volume at 20 mg/kg/day, po for 90 days by bone histomorphometry; assay type: functional, Trabecula
Rattus norvegicus [7] = test: Antiosteoporotic activity in ovariectomized Sprague-Dawley rat assessed as trabecular bone volume at 10 mg/kg/day, po for 90 days by bone histomorphometry; assay type: functional, Trabecula
Rattus norvegicus [8] = test: Antiosteoporotic activity in ovariectomized Sprague-Dawley rat assessed as trabecula resorption surface at 10 mg/kg/day, po for 90 days by bone histomorphometry; assay type: functional
Rattus norvegicus [9] = test: Antiosteoporotic activity in ovariectomized Sprague-Dawley rat assessed as trabecula formation surface at 10 mg/kg/day, po for 90 days by bone histomorphometry; assay type: functional
Rattus norvegicus [10] = test: Antiosteoporotic activity in ovariectomized Sprague-Dawley rat assessed as mineral apposition rate at 20 mg/kg/day, po for 90 days by bone histomorphometry; assay type: functional
Rattus norvegicus [11] = test: Antiosteoporotic activity in ovariectomized Sprague-Dawley rat assessed as mineral apposition rate at 10 mg/kg/day, po for 90 days by bone histomorphometry; assay type: functional
Rattus norvegicus [12] = test: Antiosteoporotic activity in ovariectomized Sprague-Dawley rat assessed as trabecula formation surface at 40 mg/kg/day, po for 90 days by bone histomorphometry; assay type: functional
Rattus norvegicus [13] = test: Antiosteoporotic activity in ovariectomized Sprague-Dawley rat assessed as trabecula formation surface at 20 mg/kg/day, po for 90 days by bone histomorphometry; assay type: functional
Rattus norvegicus [14] = test: Antiosteoporotic activity in ovariectomized Sprague-Dawley rat assessed as trabecula resorption surface at 40 mg/kg/day, po for 90 days by bone histomorphometry; assay type: functional
Rattus norvegicus [15] = test: Antiosteoporotic activity in ovariectomized Sprague-Dawley rat assessed as mineral apposition rate at 40 mg/kg/day, po for 90 days by bone histomorphometry; assay type: functional
Rattus norvegicus [16] = test: Antiosteoporotic activity in ovariectomized Sprague-Dawley rat assessed as trabecula resorption surface at 20 mg/kg/day, po for 90 days by bone histomorphometry; assay type: functional
Rattus norvegicus [17] = test: Antiosteoporotic activity in ovariectomized Sprague-Dawley rat assessed as trabecular bone volume at 40 mg/kg/day, po for 90 days by bone histomorphometry; assay type: functional, Trabecula
Rattus norvegicus [18] = test: Antiosteoporotic activity in ovariectomized Sprague-Dawley rat assessed as osteo cortex mineralization rate at 20 mg/kg/day, po for 90 days by bone histomorphometry; assay type: functional
Rattus norvegicus [19] = test: Antiosteoporotic activity in ovariectomized Sprague-Dawley rat assessed as average osteoid width at 20 mg/kg/day, po for 90 days by bone histomorphometry; assay type: functional
Rattus norvegicus [20] = test: Antiosteoporotic activity in ovariectomized Sprague-Dawley rat assessed as trabecula formation surface at 5 mg/kg/day, po for 90 days by bone histomorphometry; assay type: functional
Rattus norvegicus [21] = test: Antiosteoporotic activity in ovariectomized Sprague-Dawley rat assessed as mineral apposition rate at 5 mg/kg/day, po for 90 days by bone histomorphometry; assay type: functional
Rattus norvegicus [22] = test: Antiosteoporotic activity in ovariectomized Sprague-Dawley rat assessed as trabecular bone volume at 5 mg/kg/day, po for 90 days by bone histomorphometry; assay type: functional, Trabecula
Rattus norvegicus [23] = test: Antiosteoporotic activity in ovariectomized Sprague-Dawley rat assessed as trabecula resorption surface at 5 mg/kg/day, po for 90 days by bone histomorphometry; assay type: functional
Rattus norvegicus [24] = test: Antiosteoporotic activity in ovariectomized Sprague-Dawley rat assessed as average osteoid width at 5 mg/kg/day, po for 90 days by bone histomorphometry; assay type: functional
Rattus norvegicus [25] = test: Antiosteoporotic activity in ovariectomized Sprague-Dawley rat assessed as osteo cortex mineralization rate at 5 mg/kg/day, po for 90 days by bone histomorphometry; assay type: functional
[26] = Enhancement of BMP-2 expression in mouse MC3T3-E1 cells assessed as upregulation rate at 0.4 uM; assay type: functional, cell-based

Q: Which Activity [1] does the source give for `CC(=O)c1c[nH]c2ccccc12` here?
A: Its Activity is 22.8%.

Q: Which results are given for `CC(=O)c1cc2ccccc2o1`?
A: Activity (Rattus norvegicus [2]): 11 µm; Activity (Rattus norvegicus [3]): 3.28 µm/day; Activity [1]: 33.5%; Activity (Rattus norvegicus [4]): 3.3 µm/day; Activity (Rattus norvegicus [5]): 11.2 µm; Activity (Rattus norvegicus [6]): 13.13%; Activity (Rattus norvegicus [7]): 12.39%; Activity (Rattus norvegicus [8]): 7.84%; Activity (Rattus norvegicus [9]): 7.26%; Activity (Rattus norvegicus [10]): 2.34 µm/day; Activity (Rattus norvegicus [11]): 2.31 µm/day; Activity (Rattus norvegicus [12]): 6.74%; Activity (Rattus norvegicus [13]): 6.75%; Activity (Rattus norvegicus [14]): 5.3%; Activity (Rattus norvegicus [15]): 2.2 µm/day; Activity (Rattus norvegicus [16]): 7.15%; Activity (Rattus norvegicus [17]): 17.5%; Activity (Rattus norvegicus [18]): 3.51 µm/day; Activity (Rattus norvegicus [19]): 11.6 µm

Q: What does the source list for `O=C(c1ccc(OCCN2CCCCC2)cc1)c1c(-c2ccc(O)cc2)sc2cc(O)ccc12` [RALOXIFENE]?
A: Activity (Rattus norvegicus [20]): 6.52%; Activity (Rattus norvegicus [21]): 2.14 µm/day; Activity (Rattus norvegicus [22]): 22.31%; Activity (Rattus norvegicus [23]): 3.34%; Activity (Rattus norvegicus [24]): 11.1 µm; Activity (Rattus norvegicus [25]): 3.15 µm/day

Q: With `CC[C@H](C)C(=O)O[C@H]1C[C@@H](C)C=C2C=C[C@H](C)[C@H](CC[C@@H]3C[C@@H](O)CC(=O)O3)[C@H]21` as the molecule, how does the Activity [26] read?
A: The Activity was 20.9%.

Q: For `CC(=O)c1sc2ccccc2c1C`, which Activity [1] is on record?
A: Its Activity is 28%.
